Activity calls are given as the source filed them.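 How the source made its calls: active means maximal inhibition of USP17 at or above 30% in the confirmation dose-response, a value not among the printed readouts; inactive means the rest.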
Each compound was assayed against Ubiquitin carboxyl-terminal hydrolase 17-like protein 5 (Homo sapiens) (UniProt A8MUK1) (assay: ubiquitin-specific protease 17 inhibitors, concentration series, biochemical, verification of primary actives (AID 1645864)). Settings: purified USP17, ubiquitin-rhodamine cleavage fluorescence, 3 h.
Sequence of Ubiquitin carboxyl-terminal hydrolase 17-like protein 5 (Homo sapiens) (A8MUK1 whole entry, looked up): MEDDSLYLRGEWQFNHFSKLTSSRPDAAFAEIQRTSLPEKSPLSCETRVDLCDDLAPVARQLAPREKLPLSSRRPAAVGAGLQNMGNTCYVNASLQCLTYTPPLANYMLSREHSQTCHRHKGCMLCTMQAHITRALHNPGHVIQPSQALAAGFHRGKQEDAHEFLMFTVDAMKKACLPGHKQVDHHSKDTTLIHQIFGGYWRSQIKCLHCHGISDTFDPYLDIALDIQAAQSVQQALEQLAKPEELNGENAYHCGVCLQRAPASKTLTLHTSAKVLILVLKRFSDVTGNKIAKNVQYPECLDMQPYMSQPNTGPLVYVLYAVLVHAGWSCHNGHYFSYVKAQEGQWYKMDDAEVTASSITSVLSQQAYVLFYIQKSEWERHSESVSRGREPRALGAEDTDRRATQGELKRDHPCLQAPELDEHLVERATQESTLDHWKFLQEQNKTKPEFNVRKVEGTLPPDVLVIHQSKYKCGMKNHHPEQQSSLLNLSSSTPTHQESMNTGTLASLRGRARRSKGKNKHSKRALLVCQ

| SMILES | IC50 |
| --- | --- |
| CCc1ccc(NC(=O)COC(=O)c2n[nH]c3ccccc23)cc1 | 3.42 µM |
| Cc1ccc(-c2c(C(=O)Nc3ccc(S(N)(=O)=O)cc3)oc(=O)c3ccccc23)cc1 | 31.9 µM |
| O=C(OCc1ccc(Br)cc1)c1ccc2ccccc2n1 | > 50 µM (inactive) |
| CCc1c(C)c(C#N)c2nc3ccccc3n2c1N1CCN(C2CCCC2)CC1 | 3.06 µM |
| Cc1ccc(NC(=O)c2cnc3c(c2)c(=O)n(C)c(=O)n3C)cc1 | 2.51 µM |
| COc1ccc(-c2nc(-c3nnn(Cc4ccc(F)cc4)c3C)no2)c(OC)c1 | 6.53 µM |
| N#Cc1ccc(Cc2ncc(C(F)(F)F)cc2Cl)s1 | > 50 µM (inactive) |
| CC(C)Cc1nc2sc3c(NCc4ccccc4)ncnc3c2c2c1COC(C)(C)C2 | 6.77 µM |
| CCn1cnc2ccc(C(=O)NC3CC3)cc2c1=O | > 50 µM (inactive) |
| Cc1ccnc(NC(=O)c2ccn(COc3ccc(Cl)cc3)n2)c1 | 24.2 µM |
| FC(F)(F)c1ccccc1CCN1CCc2nc3ccc(Cl)cc3cc2C1 | > 50 µM (inactive) |
| c1ccc(CCN2CCc3nc4cccnc4cc3C2)nc1 | > 50 µM (inactive) |
| O=C(NCC(c1cccnc1)N1CCc2ccccc2C1)C(=O)Nc1ccc2c(c1)OCO2 (stereo not given) | 30.5 µM |
| CCCC(=O)c1c[nH]c(C(=O)NCc2ccc(F)cc2)c1 | 14.5 µM |
| Cc1cc2nc(/C=C/c3ccccc3)n(Cc3cccc(F)c3)c2cc1C | > 50 µM (inactive) |
| N#Cc1ccccc1Cn1c(=O)n(Cc2ccco2)c(=O)c2ccccc21 | 36.6 µM |
| O=C1N[C@@H](Cc2ccccc2)C(=O)N2[C@H]3Nc4ccccc4[C@@]3([C@]34C[C@H]5C(=O)N[C@@H](Cc6ccccc6)C(=O)N5[C@H]3Nc3ccccc34)C[C@@H]12 | 38.4 µM |
| CCOc1ccc2[nH]c(=O)c(CN(C(=O)c3cccs3)C3CCCC3)cc2c1 | 11.1 µM |
| Cc1ccc2nc(-c3cccc(-c4nc5ccc(C)cc5[nH]4)n3)[nH]c2c1 | 7.06 µM |
| O=C(CSc1nnnn1-c1ccccc1)Nc1ccccc1 | 36.8 µM |
| O=c1c2ccccc2c(-c2nc(-c3ccncc3)no2)cn1-c1ccccc1 | 2.75 µM |
| Cc1cccc(S(=O)(=O)N2CCc3nc4ccccc4n3CC2)c1 | 24.4 µM |
| O=C(Nc1ccc2ccccc2n1)c1ccc(Cl)cc1 | 2.19 µM |
| COc1ccc(NC(=O)C2CCCN(S(=O)(=O)N3CCCCCC3)C2)cc1 (stereo not given) | 29.7 µM |
| O=C(CSc1ncnc2c1oc1ccccc12)NC1CCCC1 | 26 µM |

| SMILES | IC50 |
| --- | --- |
| O=C(c1cc(Cl)ccc1Cl)N1CCN(c2ccc3nnc(-c4ccco4)n3n2)CC1 | > 50 µM (inactive) |
| N#Cc1cccnc1N1CCN(C(=O)Nc2cccc3ccccc23)CC1 | 29.2 µM |
| CC[C@H](C)[C@H](NC(=O)[C@H]([C@@H](C)CC)N(C)C(C)=O)C(=O)N[C@H](C(=O)N[C@@H](CC(C)C)C(=O)C1(C)CO1)[C@@H](C)O (stereo not given in full) | > 50 µM (inactive) |
| O=C(Cn1c(CSc2ccccc2)nc2ccccc21)Nc1ccccc1F | 39.6 µM |
| NC(=O)Cn1c(=O)n(Cc2ccc(C(=O)NC3CCCC3)cc2)c(=O)c2ccccc21 | > 50 µM (inactive) |
| Nc1ccc(F)c(NS(=O)(=O)c2ccccc2)c1 | > 50 µM (inactive) |
| CC(=O)C1=C(O)[C@]2(O)C(=O)c3c(c(C)c4ccc(C)c(O)c4c3O)C[C@H]2[C@@H](N)C1=O | 1.14 µM |
| CCN(CC)c1nc(F)c2c(c1F)S(=O)(=O)CCN2Cc1ccccc1 | > 50 µM (inactive) |
| Cc1cc(=O)n(CC(=O)Nc2ccccc2C)c(Nc2ccc(F)cc2)n1 | 26.8 µM |
| CCc1cc2cc3c(cc2nc1SCC(=O)Nc1cccc(C(C)=O)c1)OCO3 | 2.29 µM |
| O=C(Nc1ccc(Br)cn1)c1nc2ccccc2nc1N1CCCCC1 | > 50 µM (inactive) |
| Cc1ccc(C(=O)Nc2cc3c4c(c2)CC(=O)N4CCC3)cc1 | > 50 µM (inactive) |
| O=C1c2c(O)c(Cl)cc3c2[C@@]2(Oc4cc(Cl)c(O)c5c4[C@]3(O2)[C@@H]2O[C@@H]2C5=O)[C@@H]2O[C@H]12 | 0.411 µM |
| O=C(COc1cccc(-n2cnnn2)c1)Nc1ccc2c(c1)OCCO2 | > 50 µM (inactive) |
| Cc1ccccc1NC(=O)Cn1cc(-c2nc(C3CC3)no2)ccc1=O | > 50 µM (inactive) |
| COc1ccc(OCC(=O)Nc2ccc(C)c(OCc3cc(=O)n4ccccc4n3)c2)cc1 | 4.29 µM |
| c1cnc(-c2n[nH]c(C3CCN(C4CCNC4)CC3)n2)cn1 (stereo not given) | > 50 µM (inactive) |
| O=C(Nc1nc2ccccc2s1)c1ccc2c(c1)C(=O)N(Cc1cccnc1)C2=O | 4.06 µM |
| CCCCN1CC(C(=O)Nc2ccc(C(=O)Nc3ccc(Cl)cc3)cc2)CC1=O (stereo not given) | 16.5 µM |
| COc1ccc(OC)c2c(C)cc(N3CCN(S(=O)(=O)c4ccc5c(c4)CCCN5S(C)(=O)=O)CC3)nc12 | 9.83 µM |
| O=C(CSc1nncc2ccccc12)Nc1ccc2c(c1)OCO2 | > 50 µM (inactive) |
| CC1=C2C(=NCCN1)C(=O)N(c1ccccc1)C2c1cccnc1 (stereo not given) | > 50 µM (inactive) |
| CN1CCN(c2ncnc3c2oc2ccc(Cl)cc23)CC1 | > 50 µM (inactive) |
| Cn1nc(-c2nc(-c3ccccc3)no2)c2c1CCN(C(=O)C1CC1)C2 | > 50 µM (inactive) |
| Cc1c(C)n(-c2ccc(Br)cn2)c2ncnc(NCCCO)c12 | 49.9 µM |

| SMILES | IC50 |
| --- | --- |
| CCCN1CCN(C(=O)c2cc(NC(=O)C3CCC3)cc3nc(C)ccc23)CC1 | > 50 µM (inactive) |
| O=[N+]([O-])c1ccc(NCC2COc3ccccc3O2)c(Cl)c1 (stereo not given) | > 50 µM (inactive) |
| O=C(Nc1oc2ccccc2c(=O)c1-c1ccc2c(c1)OCO2)C1CCCCC1 | 30.1 µM |
| O=C(Cn1c(=O)n(-c2ccccc2)c(=O)c2ccc(C(=O)NCc3ccc4c(c3)OCO4)cc21)NCCC1=CCCCC1 | 16.9 µM |
| CCOC(=O)c1ccc(NC(=O)C[n+]2cc(-c3ccc(Cl)cc3)n3c2CCC3)cc1 | > 50 µM (inactive) |
| O=C(Cn1ccc2ccc(N3CCOCC3)nc21)NCc1ccccc1F | > 50 µM (inactive) |
| c1ccc(-c2ccc(NCc3ccc4c(c3)OCO4)nn2)cc1 | 7.45 µM |
| Cc1cc(C(=O)Nc2cc(C)n(Cc3ccc(Cl)cc3)n2)no1 | > 50 µM (inactive) |
| CC(=O)c1ccccc1NC(=O)COc1ccc(-c2ccc(C#N)cc2)cc1 | 2.62 µM |
| COc1ccc(CCNC(=O)COc2ncnc3oc(C)c(C)c23)cc1OC | > 50 µM (inactive) |
| COc1ccc2[nH]cc(S(=O)(=O)c3ccc(C)c(F)c3)c(=O)c2c1 | 48 µM |
| O=C(Nc1ccc(SCc2nnc(-c3ccccc3)o2)cc1)C1CC1 | > 50 µM (inactive) |
| O=C(COc1ccc2c(c1)CCC2)Nc1ccc2c(c1)CCC2 | 19.1 µM |
| O=C(NCCn1ccc2ccccc21)c1cc2ccccc2oc1=O | 29.8 µM |
| O=C(NC1(O)C(=O)c2ccccc2C1=O)c1cccc2c1-c1ccccc1C2=O | 11.2 µM |
| COc1cc(-c2ccno2)ccc1S(=O)(=O)Nc1ccccc1Cl | > 50 µM (inactive) |
| CCOC(=O)c1ccc(NC(=O)COc2cccc3c2CCN(CC)C3=O)cc1 | > 50 µM (inactive) |
| O=C(NCc1ccc(F)cc1)C1CCCN(c2cnc3nccnc3c2)C1 (stereo not given) | > 50 µM (inactive) |
| O=C(NCc1ccc2c(c1)OCO2)c1cc2c(s1)-c1ccccc1OC2 | 3.99 µM |
| COc1ccc(NC(=O)c2sc(N3CCOCC3)nc2-c2ccccc2)c(OC)c1 | 27.7 µM |
| O=C(COc1ccc(Cl)cc1)N1CCc2cc3ccccc3nc21 | 2.41 µM |
| Cc1ccc(Cl)cc1NC(=O)COC(=O)c1ccc2ccccc2n1 | > 50 µM (inactive) |
| CC(=O)NCc1nc(-c2ccc3c(c2)nc(C)c(=O)n3C2CCCC2)no1 | > 50 µM (inactive) |
| CO[C@H]1CC[C@H](O)c2c1oc1c3c4c(c(O)c1c2=O)-c1c(cc2c(Cl)c(C)n(N)c(=O)c2c1O)C[C@@H]4OCO3 | 14 µM |
| COc1ccc(NC(=O)COc2ccc3ccc(=O)oc3c2)cc1 | 33.5 µM |

| SMILES | IC50 |
| --- | --- |
| NS(=O)(=O)c1ccc(NC(=O)Cn2cnc3cc([N+](=O)[O-])ccc3c2=O)cc1 | 18 µM |
| Cc1ccc(-c2nnc(-n3ncc(C#N)c3N)c3ccccc23)cc1C | > 50 µM (inactive) |
| COc1ccc2cc3c(nc2c1)OC(=O)N(CCc1cccc(F)c1)C3 | 0.0729 µM |
| COc1ccc(NC(=O)Cn2cc(C(=O)c3ccc(F)cc3)c(=O)c3cc(C)ccc32)cc1 | 24 µM |
| O=C(Nc1ccc2c(c1)OCCO2)C1CCN(C(=O)c2ccccc2)CC1 | > 50 µM (inactive) |
| COc1ccc(CCNC(=O)CCCCn2c(=O)c3ccccc3n(Cc3cccc(Cl)c3)c2=O)cc1OC | 35.3 µM |
| COc1ccc(-c2nc3n(n2)C(c2cccc(O)c2)C2=C(CCCC2=O)N3)cc1 (stereo not given) | 41.4 µM |
| COC1/C=C/OC2(C)Oc3c(C)c(O)c4c(c3C2=O)C(=O)C=C(NC(=O)/C(C)=C\C=C\C(C)C(O)C(C)C(O)C(C)C(OC(C)=O)C1C)C4=O (stereo not given) | 18.7 µM |
| Cc1cccc(C(=O)N2CCN3Cc4ccccc4N(C)CC3C2)c1 (stereo not given) | > 50 µM (inactive) |
| Cc1ccc(S(=O)(=O)N2CCCCC2)cc1NC(=O)Cc1cccc(F)c1 | > 50 µM (inactive) |
| Cc1ccc(NCc2cc3c(C(C)(C)C)nn(-c4ccc(Cl)cc4)c3[nH]c2=O)cc1 | 15.7 µM |
| COc1ccc(C)cc1NC(=O)C1CC(=O)Nc2nc3ccccc3n21 (stereo not given) | 33.9 µM |
| Cc1nc(Nc2c3ccccc3nc3ccccc23)sc1C | > 50 µM (inactive) |
| COc1ccc(C(=O)NCC(c2ccc3c(c2)CCCN3C)N2CCCC2)cc1 (stereo not given) | > 50 µM (inactive) |
| Cc1cc(C(F)(F)F)n2nc(C3CCN(C(=O)c4cnn(C)c4C)C3)cc2n1 (stereo not given) | 30.2 µM |
| CCC(C(=O)NCc1ccncc1)N(c1cccc(Cl)c1)S(C)(=O)=O (stereo not given) | > 50 µM (inactive) |
| O=C(CN1CCCCC1)Nc1nnc(-c2ccc([N+](=O)[O-])cc2)s1 | 19.9 µM |
| O=c1c2c(ccn1Cc1cc(F)ccc1F)ccn2Cc1cccnc1 | > 50 µM (inactive) |
| CS(=O)(=O)N1CCCc2cc(C(=O)Nc3ccc4c(c3)OCO4)ccc21 | > 50 µM (inactive) |
| COC(=O)C1C(c2ccc(OC)cc2)C2(C(=O)c3ccccc3C2=O)C2C=Cc3ccccc3N12 (stereo not given) | > 50 µM (inactive) |
| COc1ccc(CNc2nn3c(-c4cncc(OC)c4)cnc3s2)cc1 | 4.02 µM |
| O=C(c1ccsc1)N1CCC2(C1)Nc1cccnc1NC2=NC1CCCC1 (stereo not given) | > 50 µM (inactive) |
| Cc1cc(C(=O)NC2(O)C(=O)c3ccccc3C2=O)n(C)n1 | 7.39 µM |
| CC(=O)c1ccc(Cc2ncc(C(F)(F)F)cc2Cl)s1 | > 50 µM (inactive) |
| O=C(Nc1ccccc1)c1ccc2c(c1)CC(c1ccccc1)OC2=O (stereo not given) | 16 µM |
